# Source: patent US7750046B2, “Treatment of symptoms associated with irritable bowel syndrome” (The Board of Trustees of the Leland Stanford Jr. University, priority 2001, dated 2010)
# “Also recorded” adds a separate entry of the source.
# Assays:
# Type in all cases: in vivo, human
# [1] = test system: subjects who met the Rome Criteria for IBS; experiment: Bloating score (20-point scale, Bowel Symptom Questionnaire) in IBS study; conditions: for Regression analysis: dependence of bloating score on drug dosage: larger doses
# From the text: (§1) This is a longitudinal single blinded, randomized placebo controlled study in which patients act as their own controls. Subjects were volunteers who met the Rome Criteria for IBS and without other active bowel disease (i.e. GERD, colon cancer). Both adult men and women participated, ranging in age from 23 to 75 years old, with greater number of women by a ratio of 2.5:1. Subjects responded to a Bowel Symptom Questionnaire (B. Naliboff, UCLA) as well as a Brief Mood Survey (D. Burns, Stanford). […] In addition, data was collected during a washout period of one week without any study drug.
# (§2) A titration period of three to four weeks is being used to stabilize each patient on an efficacious dose of medication. […] During each week of the titration period, the cocktail was modified to allow a gradual increase or decrease in dose. Results were collected weekly by questionnaires.
# (§3) Benefit in treating chronic IBS using nerve-acting agents was quantified by a decrease in mean values of abdominal pain with a 20-point Visual Analogue scale and a decrease in bowel symptoms (bloating, etc.) using a 20-point scale. Mood was also followed by a Brief Mood Survey, which rates Depression, Anxiety, Panic, Anger and Suicidal Urge (88 points maximum total).
# [2] = test system: subjects who met the Rome Criteria for IBS; experiment: Brief Mood Survey in IBS study; conditions: for Regression analysis: dependence of mood score on drug dosage: larger doses
# From the text: as §1, §3
# [3] = test system: subjects who met the Rome Criteria for IBS; experiment: VAS abdominal pain score (20-point Visual Analogue scale) in IBS study; conditions: for Regression analysis: dependence of VAS score on drug dosage: larger doses; for p-value of drop in mean VAS pain scores: oral
# From the text: as §1, §2, §3
# [4] = test system: subjects who met the Rome Criteria for IBS; experiment: IBS study, symptom scores overall (VAS pain, bloating, mood); conditions: for Drug effect versus placebo effect, overall / Reduction of symptoms overall (H0 no reduction vs H1 some reduction): result in words
# From the text: as §1, §2, §3
# [5] = test system: subjects who met the Rome Criteria for IBS; experiment: Side effects reported in IBS study; conditions: 25 mg qhs; resolved after discontinuation
# From the text: This is a longitudinal single blinded, randomized placebo controlled study in which patients act as their own controls. Subjects were volunteers who met the Rome Criteria for IBS and without other active bowel disease (i.e. GERD, colon cancer). Both adult men and women participated, ranging in age from 23 to 75 years old, with greater number of women by a ratio of 2.5:1. Subjects responded to a Bowel Symptom Questionnaire (B. Naliboff, UCLA) as well as a Brief Mood Survey (D. Burns, Stanford). Baseline questionnaire results were taken just prior to any drug treatment as well as shortly after. In addition, data was collected during a washout period of one week without any study drug. Drugs studied included intravenous lidocaine and a trial of the oral mexiletine, topiramate, gabapentin or placebo.
# as §2
# [6] = intravenous, 22 subjects, 20 point scale
SMILES,Regression analysis: dependence of bloating score on drug dosage [1],Regression analysis: dependence of mood score on drug dosage [2],Regression analysis: dependence of VAS score on drug dosage [3],p-value of drop in mean VAS pain scores ([3]; 300 mg),p-value of drop in mean VAS pain scores ([3]; 600 mg),"Drug effect versus placebo effect, overall [4]",Reduction of symptoms overall (H0 no reduction vs H1 some reduction) [4],"Bloating, mean reduction [1, 6]",Reduction of bloating (H0 no reduction vs H1 some reduction) ([1]; result in words),Effect on mood (H0 no reduction vs H1 some reduction) ([2]; result in words),"VAS Pain scores, mean reduction [3, 6]",Reduction of VAS (H0 no reduction vs H1 some reduction) ([3]; result in words),"Relief of symptoms of abdominal pain, bloating and distension in IBS ([4]; intravenous)",Reduction of symptoms overall (H0 no reduction vs H1 some reduction) ([4]; listed as Lidocaine),"Results in decreasing bloating ([1]; all dosages, 300 mg, 450 mg & 900 mg)",Bloating: drug effect versus placebo effect ([1]; result in words),VAS: drug effect versus placebo effect ([3]; result in words),Effect on decreasing bloating ([1]; 60 mg),"Side effects reported: fatigue, number of subjects [5]",Regression analysis: dependence of any score on drug dosage ([4]; larger doses)
NCC1(CC(=O)O)CCCCC1 [gabapentin],some effect,not very important for mood,some effect,0.06,0.04,different from placebo at doses 600 mg and higher,become more pronounced as the dosage is increased,,,,,,,,,,,,,
CCN(CC)CC(=O)Nc1c(C)cccc1C [lidocaine],,,,,,much stronger effect than placebo,All patients had a significant drop in their scores,6.8,highly significant,highly significant,4.80,highly significant,very effective,most influential drug of all,,,,,,
Cc1cccc(C)c1OCC(C)N (centres unmarked) [mexiletine],some effect,not very important for mood,some effect,,,,significant at all dosages,,,,,,,,significant results in decreasing bloating,different from placebo at all levels,different from placebo at all levels,,,
CC1(C)O[C@@H]2[C@@H](CO[C@@]3(COS(N)(=O)=O)OC(C)(C)O[C@@H]23)O1 [topiramate],,,,,,,least effect of all drugs; also recorded: barely become significant at doses of 50 mg and higher,,,,,,,,,different from placebo for VAS and bloating at doses 50 mg and higher,different from placebo for VAS and bloating at doses 50 mg and higher,borderline effect,Two,do not significantly reduce any score in a predictable manner
